Patent US7569726B2, “Indanone derivatives that inhibit prolyl hydroxylase” (Amgen Inc., priority 2007, dated 2009)

target: HIF PHD2 (Homo sapiens, UniProt Q9GZT9); assay: PHD2 inhibition assay (TR-FRET, VCB-Eu detection of hydroxylated P564-HIF1α peptide); type: biochemical; conditions: 2 nM PHD2, 100 nM P564-HIF1α peptide, 0.25 μM 2-oxoglutarate, 100 μM FeCl2, pH 6, TR-FRET
Description: Inhibition of HIF PHD2 activity was quantified utilizing the TR-FRET technology. HIF PHD2 catalyzes a hydroxyl modification on the proline residue of the P564-HIF1α peptide substrate (Biotin-DLEMLAPYIPMDDDFQL (SEQ ID NO: 7)) resulting in recognition and binding of the europylated Von Hippel-Lindau protein (pVHL), elongin B and elongin C heterotrimeric (VCB-Eu) complex.
The PHD2 inhibition assay was executed by addition of freshly dissolved FeCl2 to 178.57 μM (100 μM final concentration) in PHD2 Reaction Buffer containing 30 mM MES, pH 6, 10 mM NaCl, 0.25% Brij-35, 0.01% BSA, and 1% DMSO. 28 μL of the iron solution and 2 μL of inhibitor compounds serially diluted in 100% DMSO (5% DMSO final) were added to black polypropylene 96-well microtiter plates. To that, 10 μL of 10 nM PHD2 (2 nM final) was added to all wells of the plate except for the 8 wells of column 12 (LO control), and allowed to incubate at room temperature on the shaker for one hour. Column 6 was the HI control containing PHD2 enzyme and 5% DMSO vehicle, but no inhibitor compound. To initiate the PHD2 enzymatic reaction, 10 μL of a solution containing 500 nM P564-HIF1α peptide (100 nM final), 10 mM ascorbic acid (2 mM final), and 1.25 μM 2-oxoglutarate (α-ketoglutarate; 0.25 μM final) in PHD2 Reaction Buffer was added to all wells of the plate and allowed to incubate on the shaker at room temperature for one hour.
The reaction was terminated by addition of 25 μL TR-FRET Buffer (50 mM TRIS-HCl, pH 9, 100 mM NaCl, 0.05% BSA, and 0.5% Tween-20) containing 150 mM succinate (product inhibitor; 50 mM final), 75 nM streptavidin-APC (25 nM final), and 7.5 nM VCB-Eu (2.5 nM final). The TR-FRET detection reagents were placed on a shaker for 1 hour to reach binding equilibrium before reading on the Discovery platform (PerkinElmer). Europium is excited at 315 nm and phosphoresces at 615 nm with a large Stoke's shift. APC, in turn, emits at 655 nm upon excitation at 615 nm. The TR-FRET signal is measured as the ratio of the APC 655 nm signal divided by the internal europium reference 615 nm emission signal.
The POC (percentage of control) was determined by comparing the signal from hydroxylated peptide substrate in the enzyme reaction containing inhibitor compound with that from PHD2 enzyme with DMSO vehicle alone (HI control), and no enzyme (LO control). POC was calculated using the formula: % control (POC)=(cpd−average LO)/(average HI−average LO)*100. Data (consisting of POC and inhibitor concentration in μM) was fitted to a 4-parameter equation (y=A+((B−A)/(1+((x/C)^D))), where A is the minimum y (POC) value, B is the maximum y (POC), C is the x (cpd concentration) at the point of inflection and D is the slope factor) using a Levenburg-Marquardt non-linear regression algorithm.

Sequence of HIF PHD2 (Q9GZT9 whole entry): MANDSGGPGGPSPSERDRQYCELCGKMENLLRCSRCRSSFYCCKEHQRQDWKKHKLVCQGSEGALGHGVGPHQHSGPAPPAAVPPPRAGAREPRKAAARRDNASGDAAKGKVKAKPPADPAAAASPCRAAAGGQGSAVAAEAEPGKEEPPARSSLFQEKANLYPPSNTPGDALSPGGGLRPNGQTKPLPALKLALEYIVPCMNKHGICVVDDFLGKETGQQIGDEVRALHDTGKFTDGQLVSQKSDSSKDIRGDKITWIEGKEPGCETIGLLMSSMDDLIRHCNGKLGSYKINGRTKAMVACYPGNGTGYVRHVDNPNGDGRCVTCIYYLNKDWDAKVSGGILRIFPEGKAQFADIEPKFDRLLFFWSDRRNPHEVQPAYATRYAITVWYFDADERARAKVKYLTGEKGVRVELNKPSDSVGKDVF

| IC50 | Compound |
| --- | --- |
| 3.6 nM | COc1ccc(-c2cccc3c2C(O)=C(C(=O)NCC(=O)O)C3=O)cc1 [Example 11, 2-(3-hydroxy-4-(4-methoxyphenyl)-1-oxo-1H-indene-2-carboxamido)acetic acid] |
| 22.5 nM | O=C(O)CNC(=O)C1=C(O)c2c(I)cccc2C1=O [Example 1, 2-(3-hydroxy-4-iodo-1-oxo-1H-indene-2-carboxamido)acetic acid] |
| 5.5 nM | COc1cccc(-c2ccc3c(c2)C(=O)C(C(=O)NCC(=O)O)=C3O)c1 [Example 19, 2-(3-hydroxy-6-(3-methoxyphenyl)-1-oxo-1H-indene-2-carboxamido)acetic acid] |
| 20.6 nM | O=C(O)CNC(=O)C1=C(O)c2cc(Br)ccc2C1=O [Example 2, 2-(5-bromo-3-hydroxy-1-oxo-1H-indene-2-carboxamido)acetic acid] |
| 3.6 nM | O=C(O)CNC(=O)C1=C(O)c2ccc(-c3ccccc3Cl)cc2C1=O [Example 18, 2-(6-(2-chlorophenyl)-3-hydroxy-1-oxo-1H-indene-2-carboxamido)acetic acid] |
| 22 nM | COc1ccc(-c2ccc3c(c2)C(O)=C(C(=O)NCC(=O)O)C3=O)cc1 [Example 12, 2-(3-hydroxy-5-(4-methoxyphenyl)-1-oxo-1H-indene-2-carboxamido)acetic acid] |
| 11.6 nM | O=C(O)CNC(=O)C1=C(O)c2ccc(-c3ccccc3)cc2C1=O [Example 10, 2-(3-hydroxy-1-oxo-6-phenyl-1H-indene-2-carboxamido)acetic acid] |
| 50.1 nM | O=C(O)CNC(=O)C1=C(O)c2cc(F)ccc2C1=O [Example 6, 2-(6-fluoro-3-hydroxy-1-oxo-1H-indene-2-carboxamido)acetic acid] |
| 8.5 nM | O=C(O)CNC(=O)C1=C(O)c2c(cccc2-c2ccccc2Cl)C1=O [Example 15, 2-(4-(2-chlorophenyl)-3-hydroxy-1-oxo-1H-indene-2-carboxamido)acetic acid] |
| 3 nM | COc1cccc(-c2cccc3c2C(=O)C(C(=O)NCC(=O)O)=C3O)c1 [Example 17, 2-(3-hydroxy-7-(3-methoxyphenyl)-1-oxo-1H-indene-2-carboxamido)acetic acid] |
| 3 nM | O=C(O)CNC(=O)C1=C(O)c2c(cccc2-c2cccc(Cl)c2)C1=O [Example 14, 2-(4-(3-chlorophenyl)-3-hydroxy-1-oxo-1H-indene-2-carboxamido)acetic acid] |
| 13 nM | O=C(O)CNC(=O)C1=C(O)c2cc(C(F)(F)F)ccc2C1=O [Example 3, 2-(3-hydroxy-1-oxo-5-(trifluoromethyl)-1H-indene-2-carboxamido)acetic acid] |
| 9.5 nM | O=C(O)CNC(=O)C1=C(O)c2c(Cl)cccc2C1=O [Example 4, 2-(4-chloro-3-hydroxy-1-oxo-1H-indene-2-carboxamido)acetic acid] |
| 2.8 nM | O=C(O)CNC(=O)C1=C(O)c2c(cccc2-c2ccccc2)C1=O [Example 9, 2-(3-hydroxy-1-oxo-7-phenyl-1H-indene-2-carboxamido)acetic acid] |
| 22.1 nM | COc1ccccc1-c1cccc2c1C(=O)C(C(=O)NCC(=O)O)=C2O [Example 16, 2-(3-hydroxy-7-(2-methoxyphenyl)-1-oxo-1H-indene-2-carboxamido)acetic acid] |
| 25.5 nM | O=C(O)CNC(=O)C1=C(O)c2c(F)cccc2C1=O [Example 7] |
| 3.8 nM | O=C(O)CNC(=O)C1=C(O)c2c(cccc2-c2ccc(Cl)cc2)C1=O [Example 13, 2-(4-(4-chlorophenyl)-3-hydroxy-1-oxo-1H-indene-2-carboxamido)acetic acid] |
| 47.2 nM | O=C(O)CNC(=O)C1=C(O)c2c(Cl)ccc(Cl)c2C1=O [Example 8, 2-(4,7-dichloro-3-hydroxy-1-oxo-1H-indene-2-carboxamido)acetic acid] |
